Test results from patent US10118954B2, “Apelin analogues” (University of Ulster, priority 2014, dated 2018).

System: high fat fed NIH Swiss mice
Assay: 28 day long-term study of fatty acid apelin analogues, once daily i.p. administration
Type: in vivo
From the text: NIH Swiss mice (Harlan UK Ltd., Blackthorne, UK) were derived from a nucleus colony obtained from the National Institute of Health, Bethesda, Md., USA. One group of mice were maintained on a standard rodent diet (10% fat, 30% protein, 60% carbohydrate; percent of total energy 12.99 kJ/g, Trouw Nutrition, Cheshire, UK) and used as a model of normal glycaemia. Other NIH Swiss mice were maintained on a high fat diet (45% fat, 20% protein, 35% carbohydrate; percent of total energy 26.15 kJ/g; Dietex, Essex, UK) from 8 weeks of age for 150 days to produce a model of diet induced obesity-diabetes. […] All mice were housed in an air-conditioned room maintained at 22±2° C. with a 12 h light: 12 h dark cycle (08:00-20:00 h), were singly caged, and selected for experimental groups according to body weight and non-fasted blood glucose. Drinking water and diet were freely available. All animal studies were performed in accordance with the UK Animals (Scientific Procedures) Act 1986.
For another 28 day long-term study of selected fatty acid apelin analogues administered once daily, normal control NIH Swiss (n=8) and high-fat fed NIH Swiss (n=8) were grouped and received once daily i.p. injections of saline vehicle (0.9% NaCl (w/v)) at 17:00 h over a 4 day run-in period. Following the run-in period, normal control (n=8) and high-fat fed mice (n=8) received once daily (17:00 h) i.p. administration of saline vehicle (0.9% NaCl (w/v)) for 28 days. Additional groups of high-fat fed mice (n=8) received once daily i.p. injections of (Lys^8gluPal)apelin-13-amide, pGlu(Lys^8gluPal)apelin-13-amide or liraglutide (each at 25 nmol/kg bw) over a 28 day treatment period.
Food intake, body weight, blood glucose and plasma insulin were monitored at intervals of 2-3 days throughout the run-in and 28 day treatment period. Blood samples for glucose and plasma insulin measurement were collected at intervals throughout the study from the cut tail vein of conscious mice. Following the 28 day treatment period, oral, i.p. and meal test glucose tolerance ([…].), and insulin sensitivity (25 U/kg bw) tests were performed. Glucose was measured using an Ascensia Contour meter and blood was collected and processed for plasma insulin analysis by radioimmunoassay. Body weight and fat mass was also assessed using the PIXImus DEXA scanner whilst energy expenditure, intake, food intake and feeding bouts were assessed using the CLAMS metabolic chamber. HbA1c was analysed post 28 days using Bayer A1C Now^+ Multi Test meter. Lipid profile test was obtained by using the iLab analyser. Cholesterol, triglyceride and HDL-cholesterol levels were measured, in plasma (3 μl), using the iLab analyser. LDL-cholesterol levels were obtained using the Friedewald equation=total cholesterol−HDL−(triglycerides/3).

[1] = once daily 25 nmol/kg bw, 28 days

Structure (SMILES): CCCCCCCCCCCCCCCC(=O)N[C@@H](CCC(=O)NCCCC[C@H](NC(=O)[C@H](Cc1c[nH]cn1)NC(=O)[C@H](CO)NC(=O)[C@H](CC(C)C)NC(=O)[C@H](CCCNC(=N)N)NC(=O)[C@@H]1CCCN1C(=O)[C@H](CCCNC(=N)N)NC(=O)[C@@H]1CCC(=O)N1)C(=O)NCC(=O)N1CCC[C@H]1C(=O)N[C@@H](CCSC)C(=O)N1CCC[C@H]1C(=O)N[C@@H](Cc1ccccc1)C(N)=O)C(=O)O [pGlu(Lys^8GluPAL)apelin-13-amide]
- HbA1c levels (after 28 days treatment): significantly reduced
- Percentage fat mass (after 28 days, DEXA analysis): 30.1%
- Insulin sensitivity (after 28 days, insulin 25 U/kg bw): significantly improved
- Glucose tolerance and plasma insulin excursion in response to an i.p and oral glucose challenge (after the 28 day treatment period): significantly improved
- HDL-cholesterol levels compared to the lean control and high fat fed mice (once daily): significantly increased
- Bodyweight reduction [1]: approximately 7%
- Day of study at which bodyweight was significantly decreased [1]: 16 days
- Day of study at which circulating blood glucose began to be significantly reduced and plasma insulin increased [1]: 13 days
- Day of study at which food intake was significantly reduced [1]: 8 days
- LDL-cholesterol levels compared to the high fat fed controls (once daily, Friedewald equation): significantly lowered
- Plasma triglyceride levels (once daily, high-fat fed mice): significantly lower
- Total cholesterol levels in plasma (once daily, high-fat fed mice): significantly lower
